{
  "source": "paper PMC7415757",
  "about": "“Monocrotaline-induced liver toxicity in rat predicted by a combined in vitro physiologically based kinetic modeling approach” (Archives of Toxicology, 2020)",
  "key": {"[1]": {"design": "method as in Lester et al. ([2019])", "details": "ref Lester et al. ([2019]); cited from earlier work"}, "[2]": {"system": "human liver cell line HepaRG", "details": "in vitro γH2AX induction potency, ref Louisse et al. ([2019]); cited from earlier work"}, "DNA adducts": {"system": "DNA adducts", "design": "method as in Xia et al. ([2013])", "details": "moderate tumour formation; ref Xia et al. ([2013]); cited from earlier work"}, "primary rat hepatocytes": {"system": "primary rat hepatocytes", "assay": "WST-1 cytotoxicity assay with primary rat hepatocytes", "assay_type": "cell-based, rat (Sprague–Dawley)", "experimental": "The monocrotaline-induced liver toxicity was tested in vitro using the WST-1 assay which measures the formazan formation by the metabolically active cells from WST-1. Pooled cryopreserved plateable male rat (Sprague–Dawley) hepatocytes (RTCP10™) were thawed and seeded in accordance with the manufacturer’s protocol. Briefly, cells were seeded in 96-well plates (Greiner bio-one, Alphen aan den Rijn, The Netherlands) at a concentration of 5 × 10^5 cells/ml to give 1.25 × 10^4 cells/well and incubated at 37 °C, 5% CO2 in a humidified atmosphere for 6 h to allow cell adherence. […] The solvent DMSO (0.5% (v/v) final concentration in exposure medium) was used as a negative control and triton X (final concentration 1% (v/v) in exposure medium) served as a positive control in all cytotoxicity assays. After exposure for 24 h, 5 μl (1:20 dilution) WST-1 reagent was added to each well and plates were incubated for an additional 1 h. Then, the plate was shaken at 1000 rpm for 1 min, and absorbance was measured at 440 nm (background absorbance at 620 nm was subtracted) using a SpectraMax M2 (Molecular Devices, Sunnyvale, USA).\nData are presented as mean values ± SE from three independent experiments with three different batches of rat hepatocytes. The cell viability was expressed as percentage of the solvent control, with the solvent control set at 100%. The obtained concentration–response curves for hepatotoxicity were fitted with a symmetrical sigmoidal model (Hill slope) which was further used to derive IC50 values using log [inhibitor] vs. normalized response using GraphPad Prism software (version 5.00 for Windows, GraphPad software, San Diego, USA)."}},
  "data": [
    {"compound": "C[C@H]1C(=O)O[C@@H]2CCN3CC=C(COC(=O)[C@](C)(O)[C@]1(C)O)[C@H]23", "note": "[Monocrotaline]", "values": [
      {"measurement": "metabolic stability", "setting": "[1]", "result": "metabolically stable"},
      {"measurement": "potency group", "setting": "[2]", "result": "group 3"},
      {"measurement": "ranking based on the formation of DNA adducts", "setting": "DNA adducts", "result": "group II"},
      {"measurement": "IC50", "setting": "primary rat hepatocytes; Rattus norvegicus, Hepatocyte, 24 h exposure, serum-free medium, WST-1, read-out: IC50 cell viability", "result": 225, "unit": "µM"},
      {"measurement": "decrease in cell viability", "setting": "primary rat hepatocytes; highest concentration 600 µM, 24 h", "result": "over 60%"}
    ]}
  ]
}
